Assay: Cmax in po dosed human plasma
Format: ADME, organism-based
Parameters: route po

SMILES: CC(C)=CCC[C@](C)(O[C@H]1O[C@H](CO)[C@@H](O)[C@H](O)[C@H]1O)[C@H]1CC[C@]2(C)[C@@H]1[C@H](O)C[C@@H]1[C@@]3(C)CC[C@H](O)C(C)(C)[C@@H]3CC[C@]12C
- Cmax: 8.35 ng/mL

SMILES: CC(C)=CCC[C@](C)(O[C@@H]1O[C@H](CO[C@@H]2O[C@H](CO)[C@@H](O)[C@H](O)[C@H]2O)[C@@H](O)[C@H](O)[C@H]1O)[C@H]1CC[C@]2(C)[C@@H]1[C@H](O)C[C@@H]1[C@@]3(C)CC[C@H](O[C@@H]4O[C@H](CO)[C@@H](O)[C@H](O)[C@H]4O[C@@H]4O[C@H](CO)[C@@H](O)[C@H](O)[C@H]4O)C(C)(C)[C@@H]3CC[C@]12C [GINSENOSIDE RB1]
- Cmax: 3.94 ng/mL
